In US9776972B2, “Pyrazole derivatives as arginine methyltransferase inhibitors and uses thereof” (priority 2013, dated 2017) one finds IC50 data, which are given here for 38 compounds.

Structures are written as SMILES. pIC50: −log10 of the molar value.

The assay concerns the target human PRMT3 (Homo sapiens, UniProt O60678). Kind of assay: PRMT3 Biochemical Assay (3H-SAM Flashplate, peptide substrate). The conditions noted are these: single experiment or average of multiple experiments. The source says:
S-adenosylmethionine (SAM), S-adenosylhomocysteine (SAH), bicine, Tween20, dimethylsulfoxide (DMSO), bovine skin gelatin (BSG), isopropyl-β-D-thiogalactopyranoside (IPTG), and Tris(2-carboxyethyl)phosphine hydrochloride solution (TCEP) were purchased from Sigma-Aldrich at the highest level of purity possible. ^3H-SAM was purchase from American Radiolabeled Chemicals with a specific activity of 80 Ci/mmol. 384-well streptavidin Flashplates were purchased from PerkinElmer.
Peptide containing the classic RMT substrate motif was synthesized with an N-terminal linker-affinity tag motif and a C-terminal amide cap by 21st Century Biochemicals. The peptide was purified by high-performance liquid chromatography (HPLC) to greater than 95% purity and confirmed by liquid chromatography mass spectrometry (LC-MS). The sequence was Biot-Ahx-[…]-amide (SEQ ID NO.:11).
Full-length human PRMT3 (NM_005788.3) isoform 1 transcript clone was amplified from an HEK 293 cDNA library and subcloned into pGEX-KG (GE Life Sciences). The resulting construct encodes an N-terminal GST tag and a thrombin cleavage sequence ([…] […] […] […]) (SEQ ID NO.: 12) fused directly to Cys 2 of PRMT3.
E. coli (BL21(DE3) Gold, Stratagene) made competent by the CaCl2 method were transformed with the PRMT3 construct and ampicillin selection. Protein over-expression was accomplished by growing the PRMT3 expressing E. coli clone and inducing expression with 0.3 mM IPTG at 16° C. The culture was grown for 12 hours, harvested by centrifugation, and stored at −80° C. for purification.
GST-tagged PRMT3 was eluted with 50 mM Tris, 2 mM glutathione, pH 7.1 and 50 mM Tris, 20 mM glutathione, pH 7.1. Pooled fractions were dialysed in 20 mM Tris, 50 mM NaCl, 5% glycerol, 1 mM EDTA, 1 mM DTT, pH7.5 (Buffer B) and applied to a Q Sepharose Fast Flow column. GST-tagged PRMT3 was eluted by 500 mM NaCl in buffer B. Pooled fractions were dialyzed in 25 mM phosphate buffer, 100 mM NaCl, 5% glycerol, 2 mM DTT, pH 6.8 (Buffer C) and loaded on to a ceramic hydroxyapatite column. GST-tagged PRMT3 eluted with 25-400 mM phosphate in buffer C. Protein was concentrated and buffer was exchanged to 20 mM Tris, 150 mM NaCl, 5% glycerol, 5 mM β-mercaptoethanol, pH7.8 by ultrafiltration. The purity of recovered protein was 70%.
General Procedure for PRMT3 Enzyme Assays on Peptide Substrates.
The assays were all performed in a buffer consisting of 20 mM Bicine (pH=7.6), 1 mM TCEP, 0.005% BSG, and 0.002% Tween 20, prepared on the day of use. Compounds in 100% DMSO (1 ul) were spotted into a polypropylene 384-well V-bottom plates (Greiner) using a Platemate Plus outfitted with a 384-channel head (Thermo Scientific). DMSO (1 ul) was added to Columns 11, 12, 23, 24, rows A-H for the maximum signal control and 1 ul of SAH, a known product and inhibitor of PRMT3, was added to columns 11, 12, 23, 24, rows I-P for the minimum signal control. A cocktail (40 ul) containing the PRMT3 enzyme was added by Multidrop Combi (Thermo-Fisher). The compounds were allowed to incubate with PRMT3 for 30 min at room temperature, then a cocktail (10 ul) containing SAM and peptide was added to initiate the reaction (final volume=51 ul). The final concentrations of the components were as follows: PRMT3 was 0.5 nM, ^3H-SAM was 100 nM, non-radiolabeled SAM was 1.8 uM, peptide was 330 nM, SAH in the minimum signal control wells was 1 mM, and the DMSO concentration was 2%. The assays were stopped by the addition of potassium chloride (10 ul) to a final concentration of 100 mM. 50 ul of the reaction in the 384-well polypropylene plate was then transferred to a 384-well Flashplate and the biotinylated peptides were allowed to bind to the streptavidin surface for at least 1 hour before being washed once with 0.1% Tween20 in a Biotek ELx405 plate washer. […]

Sequence of human PRMT3 (O60678 with tags, fused parts or gaps): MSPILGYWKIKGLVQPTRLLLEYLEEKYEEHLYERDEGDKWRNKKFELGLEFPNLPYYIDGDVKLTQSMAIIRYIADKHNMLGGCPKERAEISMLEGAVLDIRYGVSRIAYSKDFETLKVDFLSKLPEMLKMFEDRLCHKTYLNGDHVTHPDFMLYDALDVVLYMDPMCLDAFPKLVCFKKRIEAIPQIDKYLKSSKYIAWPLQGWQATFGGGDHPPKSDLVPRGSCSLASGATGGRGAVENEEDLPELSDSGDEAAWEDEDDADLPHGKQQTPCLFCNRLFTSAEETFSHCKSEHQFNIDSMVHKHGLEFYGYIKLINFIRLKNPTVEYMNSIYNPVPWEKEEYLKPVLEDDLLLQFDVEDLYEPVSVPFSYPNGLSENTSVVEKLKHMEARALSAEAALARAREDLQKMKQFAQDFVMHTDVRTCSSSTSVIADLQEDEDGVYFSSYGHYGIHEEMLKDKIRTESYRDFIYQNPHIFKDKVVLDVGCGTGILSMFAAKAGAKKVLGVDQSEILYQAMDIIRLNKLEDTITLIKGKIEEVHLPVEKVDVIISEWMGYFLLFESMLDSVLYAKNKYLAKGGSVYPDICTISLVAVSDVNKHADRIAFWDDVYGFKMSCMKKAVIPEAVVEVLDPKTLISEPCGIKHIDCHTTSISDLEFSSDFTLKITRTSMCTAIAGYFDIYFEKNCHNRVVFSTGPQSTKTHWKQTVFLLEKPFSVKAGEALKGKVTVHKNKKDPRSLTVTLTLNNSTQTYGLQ

Broadly, the pIC50 is the IC50 on a negative log10 scale, so that one unit is a factor of ten. Read a high pIC50 as a small IC50. As to `COCCn1ncc(CN(C)CCN)c1-c1ccc(F)cc1` [Compound 6], the pIC50 was < 4.30.

`CCn1ncc(CN(C)CCNC)c1-c1ccc(F)cc1` [Compound 7] gave a pIC50 of 4.58.

`CCn1cc(CN(C)CCNC)c(-c2ccc(F)cc2)n1` [Compound 8]: the negative logarithm of the IC50 (pIC50) was < 4.30.

`CN(CCN)Cc1c[nH]nc1-c1ccc(OCC(F)(F)F)cc1` [Compound 96] gave a pIC50 of 5.50.

As for `CC(C)Oc1ccc(-c2n[nH]cc2CN(C)CCN)cc1F` [Compound 97], the pIC50 is 5.46. The pIC50 values of the last two compounds are within 0.2 log units of each other.

For the compound `CN(CCN)Cc1c[nH]nc1-c1ccc(C2CCOCC2)cc1` [Compound 98], the pIC50 was 6.17.

`CN(CCN)Cc1n[nH]cc1-c1ccc(C#N)cc1` [Compound 100] had a pIC50 of 5.14.

Take `CN(CCN)Cc1n[nH]cc1-c1ccc(Cl)cc1` [Compound 102]: the pIC50 is 5.21.

Consider `CN(CCN)Cc1n[nH]cc1-c1ccc(OC(F)(F)F)cc1` [Compound 105], for which the pIC50 is 5.01.

As for `COc1ccc(-c2n[nH]cc2CN(C)CCN)c(F)c1` [Compound 107], the pIC50 was 5.10. The pIC50 values of the last two compounds are within 0.2 log units of each other.

`Cc1ccc(-c2n[nH]cc2CN(C)CCN)c(F)c1` [Compound 108] had a pIC50 of 5.00. This pIC50 and that of the compound before are within 0.2 log units of each other.

In turn, `Cc1cc(C#N)ccc1-c1n[nH]cc1CN(C)CCN` [Compound 110] showed a pIC50 of 5.14. This pIC50 and that of the compound before are within 0.2 log units of each other.

Consider `CN(CCN)Cc1c[nH]nc1-c1cc(F)cc(F)c1` [Compound 111], for which the pIC50 was 5.27.

In turn, `CC(=O)c1cccc(-c2n[nH]cc2CN(C)CCN)c1` [Compound 112] showed a pIC50 of 5.43.

Turning to `CN(CCN)Cc1c[nH]nc1-c1ccc(OC2CC2)cc1` [Compound 114], the pIC50 is 5.49.

The compound `CC(O)c1ccc(-c2n[nH]cc2CN(C)CCN)cc1` (centres unmarked) [Compound 115] showed a pIC50 of 5.08.

`CN(CCN)Cc1c[nH]nc1-c1ccc(C2CC2)cc1` [Compound 116]: the pIC50 is 5.56.

As to `CN(CCN)Cc1c[nH]nc1-c1ccc(C(F)(F)F)c(Cl)c1` [Compound 117], the pIC50 was 5.64. The pIC50 values of the last two compounds are within 0.2 log units of each other.

In the case of `CN(CCN)Cc1c[nH]nc1-c1ccc(Cl)c(F)c1` [Compound 118], the pIC50 is 5.98.

As to `CN(CCN)Cc1n[nH]cc1-c1ccc(OC2CC2)cc1` [Compound 119], the pIC50 was 5.02.

The compound `CN(CCN)Cc1c[nH]nc1-c1cc(F)cc(Cl)c1` [Compound 121] had a pIC50 of 5.54.

In the case of `CN(CCN)Cc1c[nH]nc1-c1cccc(Cl)c1` [Compound 122], the pIC50 was 5.30.

With `CN(CCN)Cc1c[nH]nc1-c1cccc(Cl)c1F` [Compound 123], the pIC50 is 5.41.

In the case of `CN(CCN)Cc1c[nH]nc1-c1ccc(F)c(Cl)c1` [Compound 124], the pIC50 was 5.65.

`COc1ccc(-c2n[nH]cc2CN(C)CCN)cc1Cl` [Compound 125] had a pIC50 of 5.36.

Regarding `Cc1ccc(-c2n[nH]cc2CN(C)CCN)cc1Cl` [Compound 126], the pIC50 was 5.59.

The compound `COc1cc(Cl)cc(-c2n[nH]cc2CN(C)CCN)c1` [Compound 127] gave a negative-log IC50 (pIC50) of 5.25.

Compound `Cc1c(F)cccc1-c1n[nH]cc1CN(C)CCN` [Compound 129] had a pIC50 of 5.00.

The compound `COc1cccc(-c2n[nH]cc2CN(C)CCN)c1` [Compound 130] had a pIC50 of 5.19.

Consider `Cc1cccc(-c2n[nH]cc2CN(C)CCN)c1` [Compound 131], for which the pIC50 is 5.45.

In turn, `CN(CCN)Cc1c[nH]nc1-c1ccc(Cl)cc1F` [Compound 132] gave a pIC50 of 5.40.

As for `Cc1cc(Cl)ccc1-c1n[nH]cc1CN(C)CCN` [Compound 133], the pIC50 is 5.39.

As to `COc1ccc(-c2n[nH]cc2CN(C)CCN)cc1F` [Compound 134], the pIC50 is 5.26.

`CN(CCN)Cc1c[nH]nc1-c1cc(Cl)cc(Cl)c1` [Compound 137] showed a pIC50 of 5.12. This pIC50 and that of the compound before are within 0.2 log units of each other.

Take `CN(CCN)Cc1c[nH]nc1-c1ccccc1C#N` [Compound 140]: the pIC50 was 5.28.

Compound `CN(CCN)Cc1c[nH]nc1-c1ccc(C(F)(F)F)c(F)c1` [Compound 141] gave a pIC50 of 5.46.

In the case of `COc1cc(-c2n[nH]cc2CN(C)CCN)ccc1F` [Compound 142], the pIC50 was 5.32.

For the compound `CCN(CC)C(=O)c1ccc(-c2n[nH]cc2CN(C)CCN)cc1` [Compound 143], the pIC50 is 5.08.
